Laboratory results from patent publication US11730811B2, “Method for treating subject suffering from flavivirus infection” (priority 2017, dated 2023).

System: human microvascular endothelial cells
Experiment: in vitro transwell permeability assay (streptavidin-HRP leakage) with DENV NS1
Format: cell-based
Settings: hyaluronidase 0.5 unit/mL to 50 units/mL added with DENV NS1 3 μg/ml for 6 hours; FIG. 6
Description: Vascular leakage is an important feature in several diseases, such as septic shock, viral hemorrhagic fever, cancer metastasis and ischemia-reperfusion injuries. Thus, an in vitro endothelial permeability assay will provide insight into the establishment or progression of such diseases. The transwell permeability assays directly detect the penetration of a specific molecule, which can be detected by a spectrometer-based absorbance reader.
The permeability of human microvascular endothelial cells treated or not with DENV NS1 (3 μg/ml, Cat. No. ENZ-PRT105-0100, Enzo Life Sciences, Inc., NY, U.S.A.), was measured by an in vitro transwell permeability assay that mimics human endothelium in vivo (referring to http://www.bio-protocol.org/e2273). In brief, human microvascular endothelial cells (2×10^5) were grown in a 24-Transwell® (pore size: 0.4 μm, Cat. No. 3414; Corning, Kennebunk, Me., U.S.A.) for 5 days until a confluent monolayer was formed. […] Twenty microliters of medium, from each lower chamber, was transferred to a 96-well plate and analyzed for HRP activity by adding 100 μL 3,3′,5,5′-tetramethylbenzidine (TMB) substrate (Sigma-Aldrich, Cat. No. T4444, St. Louis, Mo., U.S.A.). Color development was detected by an EnSpire Multimode Reader (PerkinElmer, Upplands Väsby, Sweden) at 450 nm.

With hyaluronidase as the substance, how does the “DENV NS1-induced endothelial hyper-permeability” value read?
Its value is “reverse the DENV NS1-induced endothelial hyper-permeability significantly”.
